Columns and labels:
[1] = Plasma concentration in hCETP/apo B-100 transgenic mouse at 30 mg/kg, po after 2 hrs; assay type: ADME, organism-based; parameters: dose 30 mg/kg, route oral
[2] = AUC in hCETP/apo B-100 transgenic mouse at 30 mg/kg, po; assay type: ADME, organism-based; parameters: dose 30 mg/kg, route oral; settings: plasma
[3] = system: Mus musculus; assay: Inhibition of CETP in hCETP/apo B-100 transgenic mouse at 30 mg/kg, po after 8 hrs; assay type: functional
[4] = Plasma concentration in hCETP/apo B-100 transgenic mouse at 30 mg/kg, po after 4 hrs; assay type: ADME, organism-based; parameters: dose 30 mg/kg, route oral
[5] = Metabolic stability of the compound in mouse liver microsomes assessed as compound remaining after 10 mins; assay type: ADME, Microsome; settings: read-out: Stability
[6] = Metabolic stability of the compound in human liver microsomes assessed as compound remaining after 10 mins; assay type: ADME; settings: read-out: Stability
[7] = Metabolic stability of the compound in rat liver microsomes assessed as compound remaining after 10 mins; assay type: ADME; settings: read-out: Stability
[8] = biological target: T1, PXR (Homo sapiens, UniProt O75469); assay: Activation of PXR (unknown origin) relative to rifampicin
T1 sequence (O75469 whole entry): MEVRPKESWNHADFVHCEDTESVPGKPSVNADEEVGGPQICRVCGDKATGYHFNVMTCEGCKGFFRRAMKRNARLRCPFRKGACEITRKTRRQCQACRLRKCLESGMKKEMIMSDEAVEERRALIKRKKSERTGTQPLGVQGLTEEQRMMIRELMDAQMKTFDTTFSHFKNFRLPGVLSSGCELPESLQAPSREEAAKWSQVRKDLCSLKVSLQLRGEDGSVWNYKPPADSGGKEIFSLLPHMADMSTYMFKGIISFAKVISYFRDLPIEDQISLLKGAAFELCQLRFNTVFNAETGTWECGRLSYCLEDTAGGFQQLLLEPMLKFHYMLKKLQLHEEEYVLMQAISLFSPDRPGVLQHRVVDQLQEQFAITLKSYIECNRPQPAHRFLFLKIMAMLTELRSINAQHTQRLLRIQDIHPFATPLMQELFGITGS

[9] = biological target: T2, Nuclear receptor subfamily 1 group I member 2 (Homo sapiens, UniProt O75469); assay: Activation of PXR (unknown origin)
T2 sequence (O75469 whole entry): T1 sequence (O75469 whole entry)

[10] = biological target: T3, Cytochrome P450 1A2 (Homo sapiens, UniProt P05177); assay: Inhibition of CYP1A2 (unknown origin); assay type: ADME
T3 sequence (P05177 whole entry): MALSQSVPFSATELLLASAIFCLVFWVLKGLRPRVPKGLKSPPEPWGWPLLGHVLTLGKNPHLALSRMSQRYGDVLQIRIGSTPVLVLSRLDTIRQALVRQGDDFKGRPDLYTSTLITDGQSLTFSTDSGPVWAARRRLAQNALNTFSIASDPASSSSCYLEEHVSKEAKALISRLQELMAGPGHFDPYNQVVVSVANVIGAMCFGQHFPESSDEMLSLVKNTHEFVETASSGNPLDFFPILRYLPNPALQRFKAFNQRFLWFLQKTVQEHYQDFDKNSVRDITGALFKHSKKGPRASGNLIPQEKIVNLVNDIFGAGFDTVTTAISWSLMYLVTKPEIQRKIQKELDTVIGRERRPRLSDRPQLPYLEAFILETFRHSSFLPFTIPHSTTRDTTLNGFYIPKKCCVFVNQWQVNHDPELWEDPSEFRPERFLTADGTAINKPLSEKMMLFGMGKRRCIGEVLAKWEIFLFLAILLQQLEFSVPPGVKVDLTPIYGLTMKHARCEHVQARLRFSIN

[11] = biological target: Cytochrome P450 2D6 (Homo sapiens, UniProt P10635); assay: Inhibition of CYP2D6 (unknown origin); assay type: ADME
[12] = biological target: T4, Cytochrome P450 3A4 (Homo sapiens, UniProt P08684); assay: Inhibition of CYP3A4 (unknown origin) using benzyloxyresorufin as substrate; assay type: ADME
[13] = biological target: Cytochrome P450 2C9 (Homo sapiens, UniProt P11712); assay: Inhibition of CYP2C9 (unknown origin); assay type: ADME
[14] = biological target: T4, Cytochrome P450 3A4; assay: Inhibition of CYP3A4 (unknown origin) using 7-benzyloxy-4-trifluoromethylcoumarin as substrate; assay type: ADME
[15] = biological target: Cytochrome P450 2C19 (Homo sapiens, UniProt P33261); assay: Inhibition of CYP2C19 (unknown origin); assay type: ADME
[16] = biological target: T5, Cholesteryl ester transfer protein (Homo sapiens, UniProt P11597); assay: Inhibition of CETP in human whole plasma using [3H]-CE/HDL after 10 mins
T5 sequence (P11597 whole entry): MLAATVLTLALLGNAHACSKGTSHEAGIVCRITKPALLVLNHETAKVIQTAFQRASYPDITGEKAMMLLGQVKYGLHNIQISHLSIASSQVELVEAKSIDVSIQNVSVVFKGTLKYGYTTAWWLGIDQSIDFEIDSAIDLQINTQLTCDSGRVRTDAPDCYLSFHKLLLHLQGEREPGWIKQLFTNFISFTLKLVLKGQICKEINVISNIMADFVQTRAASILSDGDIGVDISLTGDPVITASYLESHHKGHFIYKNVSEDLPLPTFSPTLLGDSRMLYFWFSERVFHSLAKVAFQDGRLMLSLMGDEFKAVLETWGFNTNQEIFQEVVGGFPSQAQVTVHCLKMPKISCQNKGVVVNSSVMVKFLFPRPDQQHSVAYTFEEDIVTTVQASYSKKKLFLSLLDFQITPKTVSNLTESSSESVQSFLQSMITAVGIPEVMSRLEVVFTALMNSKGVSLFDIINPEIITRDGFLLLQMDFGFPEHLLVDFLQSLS

[17] = biological target: T5, Cholesteryl ester transfer protein; assay: Inhibition of human recombinant CETP using [3H]-CE/HDL by scintillation proximity assay
[18] = Plasma concentration in hCETP/apo B-100 transgenic mouse at 30 mg/kg, po after 8 hrs; assay type: ADME, organism-based; parameters: dose 30 mg/kg, route oral

Cytochrome P450 2C9, sequence (P11712 whole entry): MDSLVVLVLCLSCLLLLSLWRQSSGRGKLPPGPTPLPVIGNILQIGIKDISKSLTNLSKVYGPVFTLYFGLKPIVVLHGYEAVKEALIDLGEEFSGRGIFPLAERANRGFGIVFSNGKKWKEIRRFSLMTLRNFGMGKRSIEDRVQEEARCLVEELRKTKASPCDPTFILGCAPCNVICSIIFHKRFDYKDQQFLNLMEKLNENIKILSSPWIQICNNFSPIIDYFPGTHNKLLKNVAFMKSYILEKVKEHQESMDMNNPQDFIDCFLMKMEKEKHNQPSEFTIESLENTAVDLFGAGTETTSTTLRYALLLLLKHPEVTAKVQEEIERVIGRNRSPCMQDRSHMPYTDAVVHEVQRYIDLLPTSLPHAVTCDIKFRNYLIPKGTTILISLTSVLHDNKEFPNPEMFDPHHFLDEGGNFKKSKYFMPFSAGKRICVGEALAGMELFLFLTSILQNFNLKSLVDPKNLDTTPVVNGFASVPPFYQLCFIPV
T4 sequence (P08684 whole entry): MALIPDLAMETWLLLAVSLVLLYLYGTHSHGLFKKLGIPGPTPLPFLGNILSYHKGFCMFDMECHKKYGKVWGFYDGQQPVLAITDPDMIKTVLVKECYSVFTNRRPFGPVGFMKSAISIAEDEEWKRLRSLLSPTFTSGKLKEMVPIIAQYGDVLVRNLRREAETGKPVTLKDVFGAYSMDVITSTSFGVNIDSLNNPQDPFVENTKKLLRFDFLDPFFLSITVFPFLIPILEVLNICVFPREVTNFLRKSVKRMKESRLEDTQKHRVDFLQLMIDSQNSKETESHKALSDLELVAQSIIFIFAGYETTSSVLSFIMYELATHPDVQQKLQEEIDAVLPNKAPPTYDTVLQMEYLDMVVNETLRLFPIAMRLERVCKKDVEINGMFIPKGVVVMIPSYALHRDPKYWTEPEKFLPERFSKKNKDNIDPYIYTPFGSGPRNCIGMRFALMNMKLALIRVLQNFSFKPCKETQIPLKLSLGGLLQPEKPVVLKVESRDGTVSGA
Cytochrome P450 2C19, sequence (P33261 whole entry): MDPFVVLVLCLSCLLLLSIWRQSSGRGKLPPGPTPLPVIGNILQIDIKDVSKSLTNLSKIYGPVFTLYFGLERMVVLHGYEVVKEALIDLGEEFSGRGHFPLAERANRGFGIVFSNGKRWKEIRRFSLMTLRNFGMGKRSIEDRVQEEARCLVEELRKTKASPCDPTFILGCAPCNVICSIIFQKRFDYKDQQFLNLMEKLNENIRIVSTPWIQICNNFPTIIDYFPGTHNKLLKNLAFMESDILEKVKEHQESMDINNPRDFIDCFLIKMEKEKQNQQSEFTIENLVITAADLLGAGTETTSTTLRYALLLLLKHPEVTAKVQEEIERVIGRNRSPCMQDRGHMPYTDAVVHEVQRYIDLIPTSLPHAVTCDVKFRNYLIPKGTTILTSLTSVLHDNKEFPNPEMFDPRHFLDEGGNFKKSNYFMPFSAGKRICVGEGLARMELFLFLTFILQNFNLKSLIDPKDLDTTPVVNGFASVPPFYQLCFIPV
Cytochrome P450 2D6, sequence (P10635 whole entry): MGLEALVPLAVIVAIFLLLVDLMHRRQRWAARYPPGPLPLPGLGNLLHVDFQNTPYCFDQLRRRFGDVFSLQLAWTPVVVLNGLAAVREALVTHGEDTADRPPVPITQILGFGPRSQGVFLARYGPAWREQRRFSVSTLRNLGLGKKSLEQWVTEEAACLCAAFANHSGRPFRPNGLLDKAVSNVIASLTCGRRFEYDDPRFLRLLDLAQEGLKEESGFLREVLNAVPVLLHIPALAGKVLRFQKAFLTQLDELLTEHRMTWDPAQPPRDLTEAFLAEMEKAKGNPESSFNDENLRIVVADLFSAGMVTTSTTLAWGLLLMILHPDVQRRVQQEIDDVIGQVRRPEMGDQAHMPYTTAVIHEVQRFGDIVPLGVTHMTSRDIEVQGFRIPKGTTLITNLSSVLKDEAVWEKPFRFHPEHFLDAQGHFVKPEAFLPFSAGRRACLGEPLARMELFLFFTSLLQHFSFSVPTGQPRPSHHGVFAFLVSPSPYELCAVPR

Row | concentration at 2 h [1] [nM] | AUC [2] [µM·h] | concentration at 4 h [4] [nM] | remaining at 10 min [5] [%] | remaining at 10 min [6] [%] | remaining at 10 min [7] [%] | Emax [8] [%] | EC60 [9] [µM] | IC50 [10] [µM] | IC50 [11] [µM] | IC50 [12] [µM] | IC50 [13] [µM] | IC50 [14] [µM] | IC50 [15] [µM] | IC50 [16] [µM] | IC50 [17] [µM] | concentration at 8 h [18] [nM] | Compound | inhibition in vivo at 30 mg/kg [3] [%]
1 |  |  |  | 72 | 68 | 100 | 25 | > 5.6 | 40 | 40 | 19 | 15 | 24 | 3 | 6.4 | 0.04 |  | Fc1cc(OC(F)(F)C(F)F)cc([C@@](Cc2ccccc2)(Nc2nc3c(F)cc(F)cc3[nH]2)c2ccc(Cl)cn2)c1 | 
2 |  |  |  | 62 | 56 | 95 | 56 | > 17 | 40 | 29 | 40 | 40 | 32 | 2 | 9.5 | 0.05 |  | Fc1cc(OC(F)(F)C(F)F)cc([C@@](Cc2ccccc2)(Nc2nc3cc(F)ccc3[nH]2)c2ccc(Cl)cn2)c1 | 
3 |  |  |  |  |  |  | 70 | > 17 | 40 | 40 | 13 | 19 | 40 | 3 | 15 | 0.09 |  | Fc1cc(OC(F)(F)C(F)F)cc([C@@](Cc2ccccc2)(Nc2nc3ccccc3[nH]2)c2ccc(Cl)cn2)c1 | 
4 |  |  |  | 59 | 82 | 55 | 44 | > 5.6 | > 40 | > 40 | > 40 | > 40 | > 40 | > 40 | 3.2 | 0.02 |  | Cc1sc(N[C@](Cc2ccccc2)(c2cc(F)cc(OC(F)(F)C(F)F)c2)c2ccc(Cl)cn2)nc1C(F)(F)F | 
5 |  |  |  | 78 | 98 | 83 | 45 | > 17 | 40 | 40 | 40 | 40 | 40 | 13 | 14.8 | 0.22 |  | Fc1cc(OC(F)(F)C(F)F)cc([C@@](Cc2ccccc2)(Nc2nc(C(F)(F)F)cs2)c2ccc(Cl)cn2)c1 | 
6 |  |  |  |  |  |  |  |  |  |  |  |  |  |  | 4.2 | 0.02 |  | Fc1cc(OC(F)(F)C(F)F)cc([C@@](Cc2ccccc2)(Nc2nc3c(s2)CCCC3)c2ccc(Cl)cn2)c1 | 
7 |  |  |  | 100 | 100 | 95 | 37 | > 5.6 | > 40 | > 40 | > 40 | > 40 | > 40 | > 40 | 6.5 | 0.04 |  | Fc1cc(OC(F)(F)C(F)F)cc([C@@](Cc2ccccc2)(Nc2nc(C(F)(F)F)c(Br)s2)c2ccc(Cl)cn2)c1 | 
8 |  |  |  |  |  |  |  |  |  |  |  |  |  |  | 5.5 | 0.04 |  | Cc1nc(N[C@](Cc2ccccc2)(c2cc(F)cc(OC(F)(F)C(F)F)c2)c2ccc(Cl)cn2)sc1C | 

The next lines start with the compound.

Row | Compound | concentration at 2 h [1] [nM] | AUC [2] [µM·h] | concentration at 4 h [4] [nM] | remaining at 10 min [5] [%] | remaining at 10 min [6] [%] | remaining at 10 min [7] [%] | Emax [8] [%] | EC60 [9] [µM] | IC50 [10] [µM] | IC50 [11] [µM] | IC50 [12] [µM] | IC50 [13] [µM] | IC50 [14] [µM] | IC50 [15] [µM] | IC50 [16] [µM] | IC50 [17] [µM] | concentration at 8 h [18] [nM] | inhibition in vivo at 30 mg/kg [3] [%]
9 | O=C(NC1CCCC1)N[C@@](Cc1ccccc1)(c1cc(F)cc(C(F)(F)F)c1)c1ccc(Cl)cn1 | 1750 | 5.71 | 1010 |  |  |  |  |  |  |  |  |  |  |  |  |  |  | 56
10 | O=C(NC1CCCC1)N[C@@](Cc1ccccc1)(c1cc(F)cc(OC(F)(F)C(F)F)c1)c1ccc(Cl)cn1 |  |  |  | 4 | 10 | 12 | 88 | 0.7 | 40 | 15 | 3.6 | 4.4 | 8.8 | 17 |  |  |  | 
11 | Fc1cc(C(F)(F)F)cc([C@](Cc2ccccc2)(Nc2nc3c(s2)CCCC3)c2ccc(Cl)cn2)c1 |  |  |  |  |  |  |  |  |  |  |  |  |  |  |  | 10.8 |  | 
12 | Fc1cc(C(F)(F)F)cc([C@@](Cc2ccccc2)(Nc2nc3c(s2)CCC3)c2ccc(Cl)cn2)c1 | 2530 | 8.18 | 1240 | 33 | 73 | 56 |  |  |  |  |  |  |  |  | 8.2 | 0.04 | 142 | 26
13 | Cc1nc(N[C@@](Cc2ccccc2)(c2cc(F)cc(C(F)(F)F)c2)c2ccc(Cl)cn2)sc1C |  |  |  |  |  |  |  |  |  |  |  |  |  |  |  | 12.2 |  | 
14 | Cc1nc(N[C@](Cc2ccccc2)(c2cc(F)cc(C(F)(F)F)c2)c2ccc(Cl)cn2)sc1C |  |  |  |  |  |  |  |  |  |  |  |  |  |  | 17.3 | 0.04 |  | 
